Assay results reported in article PMC11816618, “Pharmacokinetic profile and in vivo anticancer efficacy of anagrelide administered subcutaneously in rodents” (Drug Delivery, 2025).
Where two headings read alike, the source gives them in different places.

Experiments:
[1] = test system: UZLX-GIST2B; design: method as in Pulkka et al., 2019; settings: 5 mg/kg PO BID, in 11 days; ref Pulkka et al., 2019; cited from earlier work
[2] = Petrides et al., 2009, 2018, cited from earlier work
[3] = Long-term plasma exposure after a single SC ANA dose (56-day follow-up), plasma LC-MS/MS; assay type: in vivo, Sprague-Dawley rats; settings: for AUC(0-inf) / AUC(0-t) / half-life / Cmax / Tmax: Sprague-Dawley, rat, male SD rats, n = 5, 56-day follow-up; for Cmax: read-out: Cmax; for Tmax: read-out: Tmax
Experimental: To monitor the sustained release of SC ANA in the long term, 10 male SD rats were treated with a single dose of either 7.0 mg/kg (n = 5) or 35.0 mg/kg (n = 5). The rats were purchased from SPF Biotechnology Co. Ltd. (Beijing, China). Animals were acclimated to the test facility for at least three days, during which their general health was checked by veterinary staff or other authorized personnel. Animals were kept in polycarbonate cages containing absorbent corncob bedding, with a maintained temperature range of +20-25 °C and a 12-h light/dark cycle. Animals had access to food and drinking water ad libitum during acclimation and the experiment. At the end of the study, the rats were euthanized by exposure to an increasing concentration of CO2. […] The SC formulation was prepared by dissolving micronized ANA (5 μm particle size) in an oily triglyceride ester of saturated caprylic and capric fatty acids and glycerol (Miglyol® 810 N, IOI Oleo GmbH, Hamburg, Germany). […] To evaluate plasma concentration-time profiles, blood samples were collected from the jugular vein in EDTA tubes and stored at -70 °C until further analysis. […] In the second PK analysis in rats with a longer follow-up time, blood samples were collected at 0, 30 min, 1 […], and 56 d after dosage. SD rat plasma was analyzed for ANA, 3-OH-ANA, and RL603 concentrations by Pharmaron (Beijing, China). ANA, 3-hydroxy-anagrelide (CAS No. 733043-41-9, Cat. No. sc-206647, Santa Cruz Biotechnology, Inc., Dallas, TX), and RL603 (CAS No. 327602-34-6, Cat. No. sc-391661, Santa Cruz Biotechnology, Inc., Dallas, TX) were used as reference items in calibration standards and quality control (QC) samples. The HPLC and the MS/MS (LCMS-8060) instruments were both from SHIMADZU (Kyoto, Japan), and the column used was a Raptor Biphenyl column (2.7 μm, 50 × 2.1 mm, Restek, Bellefonte, PA). The desired serial concentrations of working solutions were achieved by diluting analyte stock solution with 50% acetonitrile in water. […] QC samples at 0.5, 1, 2, 50, and 800 ng/mL were prepared independently of those used for the calibration curves. These QC samples were prepared on the day of analysis in the same way as calibration standards. Carbamazepine (CAS No. 298-46-4, Sigma-Aldrich, St. Louis, MO) was used as an internal standard for all analytes. Altogether, 55 μL of standards, 55 μL of QC samples, and 55 μL of test samples (comprising 50 μL of plasma and 5 μL of blank solution) were added to 200 μL of acetonitrile containing an internal standard mixture to precipitate protein. The samples were then vortexed for 30 seconds. After centrifugation at 4000 × g (+4 °C) for 5 min, the supernatant was diluted threefold with water, and 2 μL of the diluted supernatant was injected into the LC/MS/MS system for quantitative analysis. The transitions were 256.00-198.90 m/z for anagrelide hydrochloride, 272.00-198.95 m/z for 3-hydroxy anagrelide, 216.00-198.95 m/z for RL603, and 237.20-194.10 m/z for carbamazepine. […] Plasma drug concentration-time profiles were drawn by the average plasma concentrations at specific time points using Microsoft Excel (Redmond, WA). […] Certara, Princeton, NJ) software. Averages of each variable were used when PK values were compared.

[4] = Tolerability (body weight, well-being) during the UZLX-GIST2B efficacy experiment
Experimental: Before and during the treatments, tumor volumes (mm^3) were determined by three dimensional measurements (x × y × z) with a digital caliper. The treatments started after tumors reached an average volume between 150 and 300 mm^3, followed by randomizing the mice to the four treatment groups with an even tumor volume distribution per group. PO-treated mice received 2.5 mg/kg of ANA BID. Mice in the control group were injected with 50 µL of miglyol vehicle, and mice receiving SC ANA were injected Q4D with 35 mg/kg or 70 mg/kg into the loose skin between the shoulder blades (days 1, 5, and 9). During the experiment, tumor volumes were measured on days 1, 4, 8, and 11. In addition, animal well-being was visually monitored, and body weights were measured every day. Absolute tumor volume changes between the first and last days were considered as one of the measurements of treatment efficacy. […] Tumors were collected, weighed, and snap-frozen in liquid nitrogen, and livers of the mice were evaluated by visual inspection.
Statistical analyses were performed using IBM SPSS Statistics 28.0.0.0 (Chicago, IL). p Values below .05 were considered statistically significant. Statistical significance of body weights, tumor volumes, and tumor weights between the treatment groups was analyzed using the independent samples Kruskal–Wallis test and Dunn’s pairwise tests adjusted with Bonferroni’s correction. […]

[5] = Clinical observation during the rat PK experiments; assay type: in vivo, Sprague-Dawley rats; settings: single dose IV 0.5, PO 2.5, SC 1.0, 7.0 or 35.0 mg/kg, SD rats
Experimental: To compare PK values of the three different administration routes, 11 male Sprague-Dawley® (SD) rats (6–8 weeks old) were administered a single dose of ANA either via IV injection (n = 3, 0.5 mg/kg), PO (n = 3, 2.5 mg/kg), or SC injection (n = 5, 1.0 mg/kg). To monitor the sustained release of SC ANA in the long term, 10 male SD rats were treated with a single dose of either 7.0 mg/kg (n = 5) or 35.0 mg/kg (n = 5). The rats were purchased from SPF Biotechnology Co. Ltd. (Beijing, China). Animals were acclimated to the test facility for at least three days, during which their general health was checked by veterinary staff or other authorized personnel. Animals were kept in polycarbonate cages containing absorbent corncob bedding, with a maintained temperature range of +20–25 °C and a 12-h light/dark cycle. Animals had access to food and drinking water ad libitum during acclimation and the experiment. At the end of the study, the rats were euthanized by exposure to an increasing concentration of CO2.

[6] = analyte in plasma after single SC ANA dose 7 mg/kg
[7] = analyte in plasma after single SC ANA dose 35 mg/kg

Question: For `O=C1CN2Cc3c(ccc(Cl)c3Cl)N=C2N1` [Anagrelide, imidazo‐[2,1‐b] quinazolin‐2[3H]‐one, 6,7‐dichloro‐1,5‐dihydro, monohydro‐chloride], which “tumor response in the same PDX model” value [1] is on record?
Answer: significant tumor regression

Question: What about the “time of peak plasma concentration” value ([2]; after PO drug administration, ref Gaver et al., 1981) of the same molecule?
Answer: approximately one hour

Question: And the bioavailability ([2]; taken orally, ref Spencer & Brogden, 1994)?
Answer: approximately 70%

Question: What about the AUC(0-inf) [3, 6] of the same molecule?
Answer: 1570 ± 388 ng·h/mL

Question: And the AUC(0-t) [3, 6]?
Answer: 1460 ± 148 ng·h/mL

Question: And the half-life [3, 6]?
Answer: 293 h

Question: What about the Cmax [3, 6] of the same molecule?
Answer: 6.78 ± 1.86 ng/mL

Question: And the Tmax [3, 6]?
Answer: 1 h

Question: What about the AUC(0-inf) [3, 7] of the same molecule?
Answer: 9480 ± 5270 ng·h/mL

Question: What about the AUC(0-t) [3, 7] of the same molecule?
Answer: 6350 ± 666 ng·h/mL

Question: And the half-life [3, 7]?
Answer: 336 h

Question: What about the Cmax [3, 7] of the same molecule?
Answer: 21.8 ± 8.62 ng/mL

Question: And the Tmax [3, 7]?
Answer: 2.2 ± 1.64 h

Question: And the “time plasma concentrations were detected after a single administration” value ([3]; single SC administration in rats (7 or 35 mg/kg))?
Answer: up to 56 days

Question: What about the relative body weight ([4]; 2.5 mg/kg PO BID, 11 days, still in the acceptable range, p = .016) of the same molecule?
Answer: significantly lower relative body weights

Question: And the “finding at the injection site” value ([4]; 35 or 70 mg/kg SC Q4D in miglyol)?
Answer: drug precipitates near the injection site

Question: And the clinical symptoms [5]?
Answer: No abnormal clinical symptoms were observed
